{"source": "paper PMC13379085", "about": "(PLOS Neglected Tropical Diseases, 2026)", "key": {"[1]": {"tested_on": "Extracellular L. donovani promastigotes", "test": "Resazurin viability assay of extracellular L. donovani promastigotes", "assay_type": "cell-based, Leishmania donovani", "conditions": "for 53 strain not specified", "protocol": "The effect of compounds on extracellular promastigotes was evaluated using a resazurin-based assay as described previously. In short, late log phase Leishmania promastigotes were seeded in a 96 well plate at 1 x 10^5 parasites per well and treated with drugs (0.5 – 200 µM) for 72 hours at 25°C. Ten microliters of Resazurin (0.02% w/v) were added to the treated parasites to achieve a final concentration of 0.002% w/v and incubated for 24 hours. Viability of the promastigotes was assessed by fluorescence (excitation 544 nm, emission 590 nm, SpectraMax M2, Molecular Devices)."}, "[2]": {"tested_on": "Intracellular L. donovani amastigotes", "test": "Luminescence-based assay of intracellular L. donovani burden in THP-1 macrophages", "assay_type": "cell-based, Leishmania donovani", "protocol": "Luminescent strains, L. donovani LV82 expressing firefly luciferase (a kind gift from Dr. Abhay Satoskar, Ohio State University) and L. mexicana (NR-51210, ATCC) expressing renilla luciferase were used to evaluate the effect of the compounds in intracellular and extracellular conditions. Wild-type L. donovani LV82 (ATCC) were used for Giemsa staining based experiments. All parasites were cultured at 25°C and 5% CO2 in M199 media (Corning) supplemented with 10% FBS, 1% Penicillin/Streptomycin, and Hemin (0.01 mg/mL), and used in experiments up to passage 15.\nTHP-1 cells were seeded in a 96 well plate (25,000 cells/well) overnight then differentiated with 150 nM phorbol 12-myristate 13-acetate (PMA) over 72 hours (S1 Fig). […] Briefly, promastigotes of a known cell density were resuspended in RPMI media (with 10% FBS, 1% P/S and 0.05 mM β-mercaptoethanol) and incubated with adhered THP-1 cells over 18 hours. After infection, cells were washed three times with fresh media to remove extracellular promastigotes.\nInfected macrophages were then treated with compounds solubilized in DMSO ranging from 0.1-10 µM in concentrations. After 72 hours of treatment, the viability of the amastigotes within macrophages was determined using Promega firefly luminescence assay (Cat E1500) or Pierce Renilla luciferase assay (Cat 16166) for L. donovani and L. mexicana strains, respectively. Briefly, media was removed, and cells were lysed with the assay lysis buffer. The luciferase substrate was then incubated with the lysed cells for 10 min at room temperature and luminescence of live Leishmania was measured in a white opaque 96 well plate using a Biotek plate reader."}}, "data": [{"molecule": "O=C(CNCc1cccc(F)c1)Nc1ccc(-n2cc(C(F)(F)F)nc2-c2ccc(-c3ccc(C(F)(F)F)cc3)cc2)cc1", "note": "[Compound 197]", "values": [{"measurement": "direct effects on extracellular promastigote viability", "setting": "[1]", "value": "some direct reduction"}, {"measurement": "Selectivity 24h LC50/ Lum IC50", "setting": "[2]; host-directed effect vs cytotoxicity in THP-1", "value": ">20.6"}, {"measurement": "intracellular activity (primary screen)", "setting": "[2]; imidazole series", "value": "retaining potent intracellular activity"}]}]}
